Source: PMC3766633 (Biomaterials, 2013)
“Also recorded” adds a separate entry of the source.

Experiments:
[1] = Precipitation / aggregation on mixing with LMWP during coupling; assay type: physicochemical; conditions: mixing with LMWP or LMWP-SH during the coupling process, observation
male Wistar rats [2] = assay: Subcutaneous injection, hypoglycemic effect; assay type: in vivo, rat; conditions: 1 IU/kg
male Wistar rats [3] = assay: In situ ileal loop absorption experiment, hypoglycemic effect; conditions: 50 IU/kg
[4] = cell culture and animal studies; cited from earlier work
dogs = conditions: dog, in vivo; cited from earlier work

Which “appearance on mixing / reaction with LMWP (precipitation of insoluble complexes)” value [1] does the source give for “Insulin-Polyethylene Glycol-Maleimide [Insulin-PEG-MAL]” here?
Its value is “transparent reaction mixture”.

With insulin as the substance, how does the “time of return of BGL to the basal level (~100%)” value (male Wistar rats [2]; s.c.) read?
Its value is 6 h.

What about the “BGLmin (minimum blood glucose level)” value (male Wistar rats [2]; sc., male Wistar rats, % of initial value, N=6) of the same substance?
The value was 65.75%.

And the “Tmin (time to reach BGLmin)” value (male Wistar rats [2]; sc., male Wistar rats, N=6)?
Its value is 1 h.

What about the “AAC0→10h (area above the curve)” value (male Wistar rats [2]; sc., male Wistar rats, trapezoidal method, N=6) of the same substance?
The value was 10547 %min.

And the “PA0→10h (relative pharmacological availability)” value (male Wistar rats [2]; sc., reference route, N=6)?
The value was 100.00%.

What about the “appearance on mixing / reaction with LMWP (precipitation of insoluble complexes)” value [1] of the same substance?
The value was “significant precipitation”.

And the “hypoglycemic effect (decrease in BGL compared with PBS negative control)” value (male Wistar rats [3]; male Wistar rats)?
The value was “no statistically significant decrease; also recorded: virtually no hypoglycemic effects”.

What about the “AAC0→10h (area above the curve)” value (male Wistar rats [3]; male Wistar rats, trapezoidal method, N=6) of the same substance?
Its value is 2751 %min.

What about the “PA0→10h (relative pharmacological availability)” value (male Wistar rats [3]; relative to s.c. insulin 1 IU/kg, male Wistar rats, N=6) of the same substance?
The value was 0.52%.

Which “cell internalization potency relative to TAT” value [4] does the source give for “VSRRRRRRGGRRRR [LMWP, Low Molecular Weight Protamine]” here?
Its value is “equivalent”.

What about the complement activation (dogs) of the same substance?
Its complement activation is “only minor”.

And the hypotensive responses (dogs)?
The hypotensive responses was “non-detectable”.

Which “BGL level maintained till the end of the study (10 h)” value (male Wistar rats [2]; s.c.) does the source give for “Insulin-Polyethylene Glycol-Low Molecular Weight Protamine Conjugate [Insulin-PEG-LMWP]” here?
Its value is “around 70%”.

And the “reduction of BGL two hours following subcutaneous injection” value (male Wistar rats [2]; s.c., 2 h)?
The value was “about 30%”.

What about the “bioactivity of insulin after conjugation with LMWP” value (male Wistar rats [2]; s.c., compared with s.c. insulin) of the same substance?
The value was “not to be impaired”.

And the “transporting efficiency, times higher than that of native insulin, basolateral-to-apical flux” value (Caco-2 cell monolayer; Caco-2)?
The value was 4.09 times.

And the “Peff (permeability coefficient), apical-to-basolateral” value (Caco-2 cell monolayer; Caco-2, pH 7.4)?
The value was 5.33±0.03 ×10^-6 cm/s.

And the “Peff (permeability coefficient), basolateral-to-apical” value (Caco-2 cell monolayer; Caco-2, pH 7.4)?
Its value is 4.95±0.15 ×10^-6 cm/s.

And the “drop of BGL soon after administration” value (male Wistar rats [3])?
The value was 70%.

And the “Tmin (time to reach BGLmin)” value (male Wistar rats [3]; male Wistar rats, N=6)?
Its value is 6 h.

And the “BGL level remaining after the minimum” value (male Wistar rats [3]; over a period of 10 hours, % of initial value)?
Its value is 30–45%.
